Measured values: patent US20100323442A1, “MODULATION OF THE PHOSPHATIDYLINOSITOL-3-KINASE PATHWAY IN THE DIFFERENTIATION OF HUMAN EMBRYONIC STEM CELLS” (priority 2006, published 2010)
Entries after “also recorded” stand apart in the source; their conditions may differ.

Columns and labels:
Human ESCs (CyT203) [1] = experiment: Differentiation of hESCs in growth factor conditions, marker gene expression by QPCR; format: cell-based; settings: for expression of brachyury: RPMI, 0% FBS day 1, 0.2% day 2, 2% days 3-5, activin A 100 ng/ml at 36 and 48 hours; for differentiation of hESCs to initial cell fate, as indicated by marker expression: cultures lacking insulin, follistatin 100 ng/ml, noggin 200 ng/ml, BMP4 100 ng/ml, 5 days
Description: Human ESCs (CyT203) were grown in growth media on a mouse fibroblast feeder layer. On the day differentiation began, cultures were washed once with phosphate buffered saline (PBS) and then placed into differentiation media. Differentiation media consisted of RPMI with penicillin/streptomycin and Glutamax containing 0% FBS on the first day, 0.2% v/v FBS on the second day and 2% v/v FBS on days 3-5. Growth factors were used at the following concentrations: activin A at 100 ng/ml, follistatin at 100 ng/ml, noggin at 200 ng/ml, BMP4 at 100 ng/ml, and SU5402 at 5 μM. Individual cultures received the same growth factor cocktail with or without the addition of 10 μg/ml human recombinant insulin for all 5 days of differentiation as indicated. Samples were taken at daily intervals for analysis of gene expression using QPCR to monitor the differentiation of the populations in response to the different growth factor treatments. At the conclusion of the treatment phase the cells were fixed in 4% paraformaldehyde for 15 min at room temperature and reacted with antibodies to SOX17 or PAX6. Human embryonic stem cells (CyT203) were grown in growth media on a mouse fibroblast feeder layer. On the day differentiation began, cultures were washed once with phosphate buffered saline (PBS) and then placed into differentiation media. Differentiation media consisted of RPMI with penicillin/streptomycin and Glutamax containing 0% FBS on the first day, 0.2% v/v FBS on the second day and 2% v/v FBS on days 3-5. Cultures were treated with SU5402 at 5 μM with or without the addition of human recombinant insulin at 10 μg/ml. Individual cultures received the same growth factor cocktail for all 5 days of differentiation as indicated. Samples were taken at daily intervals for analysis of gene expression using QPCR to monitor the differentiation of the populations in response to the different growth factor treatments. At the conclusion of the treatment phase the cells were fixed in 4% paraformaldehyde for 15 min at room temperature and reacted with antibodies to SOX17, OCT4 or PAX6.

Human ESCs (CyT203) [2] = experiment: Immunofluorescence of treated hESCs with antibodies to SOX17, OCT4 or PAX6; format: cell-based
Description: Human ESCs (CyT203) were grown in growth media on a mouse fibroblast feeder layer. On the day differentiation began, cultures were washed once with phosphate buffered saline (PBS) and then placed into differentiation media. Differentiation media consisted of RPMI with penicillin/streptomycin and Glutamax containing 0% FBS on the first day, 0.2% v/v FBS on the second day and 2% v/v FBS on days 3-5. Growth factors were used at the following concentrations: activin A at 100 ng/ml, follistatin at 100 ng/ml, noggin at 200 ng/ml, BMP4 at 100 ng/ml, and SU5402 at 5 μM. Individual cultures received the same growth factor cocktail with or without the addition of 10 μg/ml human recombinant insulin for all 5 days of differentiation as indicated. Samples were taken at daily intervals for analysis of gene expression using QPCR to monitor the differentiation of the populations in response to the different growth factor treatments. At the conclusion of the treatment phase the cells were fixed in 4% paraformaldehyde for 15 min at room temperature and reacted with antibodies to SOX17 or PAX6.
Human embryonic stem cells (CyT203) were grown in growth media on a mouse fibroblast feeder layer. On the day differentiation began, cultures were washed once with phosphate buffered saline (PBS) and then placed into differentiation media. Differentiation media consisted of RPMI with penicillin/streptomycin and Glutamax containing 0% FBS on the first day, 0.2% v/v FBS on the second day and 2% v/v FBS on days 3-5. Cultures were treated with SU5402 at 5 μM with or without the addition of human recombinant insulin at 10 μg/ml. Individual cultures received the same growth factor cocktail for all 5 days of differentiation as indicated. Samples were taken at daily intervals for analysis of gene expression using QPCR to monitor the differentiation of the populations in response to the different growth factor treatments. At the conclusion of the treatment phase the cells were fixed in 4% paraformaldehyde for 15 min at room temperature and reacted with antibodies to SOX17, OCT4 or PAX6.

[3] = QPCR, activin A 100 ng/ml, SU5402 5 μM
[4] = QPCR, insulin 10 μg/ml added to growth factor treatment
[5] = QPCR, no insulin, continued presence of activin A 100 ng/ml

Molecule: Cc1c[nH]c(/C=C2\C(=O)Nc3ccccc32)c1CCC(=O)O [SU5402, reference compound]
- expression of brachyury (Human ESCs (CyT203) [1]; QPCR, no insulin, SU5402 5 μM): elevated expression
- differentiation of hESCs to initial cell fate, as indicated by marker expression (Human ESCs (CyT203) [1]; [3]): make all available fate choices; also recorded: made all available fate choices
- expression of CDX2 (Human ESCs (CyT203) [1]; QPCR, no insulin, SU5402 5 μM): elevated expression
- expression of SOX1 (Human ESCs (CyT203) [1]; QPCR, no insulin, SU5402 5 μM): elevated expression
- expression of SOX7 (Human ESCs (CyT203) [1]; QPCR, no insulin, SU5402 5 μM): elevated expression

Molecule: insulin: human recombinant insulin, 10 μg/ml, signals through the PI-3-kinase pathway
- OCT4-positive cell numbers (Human ESCs (CyT203) [2]; high levels of insulin present): maintenance
- number of SOX17-positive cells in response to activin A treatment (Human ESCs (CyT203) [2]; high levels of insulin present): decrease
- number of PAX6-positive cells in response to noggin/follistatin treatment (Human ESCs (CyT203) [2]; insulin in the media): reduced
- production of cells of each of the primary lineages (Human ESCs (CyT203) [1]; 10 μg/ml human recombinant insulin added to the growth factor cocktail, all 5 days): significantly reduced
- expression of CDX2 in the presence of insulin (Human ESCs (CyT203) [1]; [4]): decreased expression
- expression of PAX6 in the presence of insulin (Human ESCs (CyT203) [1]; [4]): decreased expression
- expression of SOX1 in the presence of insulin (Human ESCs (CyT203) [1]; [4]): decreased expression
- expression of SOX7 in the presence of insulin (Human ESCs (CyT203) [1]; [4]): decreased expression
- expression of WNT3A in the presence of insulin (Human ESCs (CyT203) [1]; [4]): decreased expression
- expression of brachyury in the presence of insulin (Human ESCs (CyT203) [1]; [4]): decreased expression
- generalized differentiation under SU5402 (Human ESCs (CyT203) [1]; SU5402 5 μM plus insulin 10 μg/ml, brachyury, SOX1, SOX7, CDX2): inhibited strongly
- efficiency with which the hESCs differentiate to each of the 4 primary lineages (Human ESCs (CyT203) [1]; high levels of insulin (10 μg/ml) in the media): decrease

B1: activin A: growth factor used at 100 ng/ml as differentiation factor (protein, UniProt P08476 311-426, looked up)
Inhibin beta A chain: GLECDGKVNICCKKQFFVSFKDIGWNDWIIAPSGYHANYCEGECPSHIAGTSGSSLSFHSTVINHYRMRGHSPFANLKSCCVPTKLRPMSMLYYDDGQNIIKKDIQNMIVEECGCS
modifications: Inhibin beta A chain
notes: growth factor used at 100 ng/ml as differentiation factor
- expression of brachyury (Human ESCs (CyT203) [1]; QPCR, no insulin, SU5402 5 μM): elevated expression
- differentiation of hESCs to initial cell fate, as indicated by marker expression (Human ESCs (CyT203) [1]; [3]): induced initial fate commitment to mesendoderm
- PAX6 mRNA (Human ESCs (CyT203) [1]; QPCR, no insulin, activin A 100 ng/ml): induction
- expression of WNT3A (Human ESCs (CyT203) [1]; QPCR, no insulin, activin A 100 ng/ml, at 36 and 48 hours): elevated expression
- expression of GSC (Human ESCs (CyT203) [1]; [5]): elevated expression
- expression of SOX17 (Human ESCs (CyT203) [1]; [5]): elevated expression
- further differentiation of the mesendoderm (Human ESCs (CyT203) [1]; continued presence of activin A 100 ng/ml, indicated by SOX17 and GSC): further differentiated to definitive endoderm
